Measurements from patent US20240409536A1, “COMPOUNDS AND METHODS FOR MODULATING SPLICING” (REMIX THERAPEUTICS INC., priority 2021, published 2024).

What was measured:
K562 cells = experiment: Cell Titer Glo 2.0 cell viability assay in K562 cells; details: 72 hours
HiBiT-tagged MYB protein = experiment: HiBiT protein abundance assay, MYB (K562 HiBiT knock-in cells); format: cell-based, human; details: 24 hours
Summary of the method: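 K562 cells with endogenous HiBiT knock-in tag, 10-point 3-fold dilutions (top 10 μM final, ≤0.25% DMSO), 24 h at 37 °C. Lytic Nano-Glo HiBiT luminescence, normalized to DMSO and unmodified K562 baselines; IC50 is concentration giving 50% protein abundance from four-parameter fit.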

Target C = experiment: HiBiT protein abundance assay, Target C (K562 HiBiT knock-in cells); format: cell-based, human; details: 24 hours
Summary of the method: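 K562 knock-in cells (10000/well, IMDM+1% FBS) treated 24 h at 37 °C with 10-point 3-fold dilutions, top final 10 μM, DMSO ≤0.25%. HiBiT lytic luminescence read; response normalized to unmodified K562 and DMSO-treated controls. IC50 interpolated at 50% abundance by four-parameter logistic fit.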

HTT mRNA = experiment: Splicing RT-qPCR assay, HTT canonical (CJ) and alternative (AJ) junction mRNA; format: cell-based; details: Homo sapiens, A673 or K562 cells, 24 hours; for IC50: decrease in canonical junction mRNA; for AC50: increase in alternative junction mRNA
Summary of the method: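 Splice switching was scored by qPCR detection of the new alternative-exon junction (AJ) alongside the canonical junction (CJ). Cell lines A673 or K562 received compound 24 h, top dose 10 uM final.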

IC50 (HiBiT-tagged MYB protein) [µM]	IC50 (Target C) [µM]	IC50 (HTT mRNA) [µM]	SMILES	Viability (K562 cells)	AC50 (HTT mRNA) [µM]
0.1 to 1	1 to 10	1 to 10	Cc1cn2cc(NC(=O)c3ccc(N4CCC5(CCN5)C4)c4nccnc34)cc(F)c2n1 (stereo not drawn) [Compound 339]	B (B represents 100-1000 nM)	1 to 10
0.1 to 1	1 to 10	1 to 10	Cc1cn2cc(NC(=O)c3ccc(N4CCN(CCO)C5(CC5)C4)c4nccnc34)cc(F)c2n1 [Compound 369]	C (C represents 1000-9999 nM)	1 to 10
0.1 to 1	1 to 10	1 to 10	Cc1cn2cc(NC(=O)c3ccc(N4C[C@@H](C)N[C@@H](C)C4)c4cncnc34)cc(F)c2n1 [Compound 302]	C (C represents 1000-9999 nM)	1 to 10
0.1 to 1	1 to 10	0.1 to 1	Cc1cn2cc(NC(=O)c3ccc(N4CCN(C)C5(CC5)C4)c4nccnc34)cc(F)c2n1 [Compound 364]	B (B represents 100-1000 nM)	1 to 10
1 to 10	> 10	> 10	COc1nc(NC(=O)c2ccc(N3C[C@@H](C)N[C@@H](C)C3)c3nccnc23)nc2cn(C)nc12 [Compound 287]	D (D represents greater than 10 μM in K562 cells)	> 10
< 0.1	1 to 10	1 to 10	Cc1cn2cc(NC(=O)c3ccc(N4CCNC5(CCC5)C4)c4nccnc34)cc(F)c2n1 [Compound 363]	A (A represents <100 nM)	1 to 10
0.1 to 1	> 10	1 to 10	Cc1cn2cc(NC(=O)c3ccc(N4C[C@@H](C)N[C@@H](C)C4)c4nccnc34)cc(C#N)c2n1 [Compound 294]	D (D represents greater than 10 μM in K562 cells)	> 10
> 10	> 10	> 10	Cc1ccc2cc(NC(=O)c3ccc(N4C[C@@H](C)N[C@@H](C)C4)c4nccnc34)cc(F)c2n1 [Compound 353]	C (C represents 1000-9999 nM)	> 10
< 0.1	> 10	1 to 10	Cc1cn2cc(NC(=O)c3ccc(N4C[C@@H](C)N[C@@H](C)C4)c4nccnc34)cc(Cl)c2n1 [Compound 304]	B (B represents 100-1000 nM)	> 10
1 to 10	1 to 10	> 10	Cc1cn2cc(NC(=O)c3ccc(N4C[C@@H](C)N[C@@H](C)C4)c4ncc(Cl)nc34)cc(F)c2n1 [Compound 281]	C (C represents 1000-9999 nM)	> 10
0.1 to 1	1 to 10	1 to 10	Cc1cn2c(C)c(NC(=O)c3ccc(N4C[C@@H](C)N[C@@H](C)C4)c4nccnc34)cc(F)c2n1 [Compound 285]	C (C represents 1000-9999 nM)	1 to 10
0.1 to 1	1 to 10	> 10	C[C@@H]1CN(c2ccc(C(=O)Nc3cc(F)c4nc(Cl)cn4c3)c3nccnc23)C[C@H](C)N1 [Compound 306]	B (B represents 100-1000 nM)	> 10
0.1 to 1	> 10	> 10	Cc1cn2cc(NC(=O)c3ccc(N4CCNCC4)c4ccnnc34)ncc2n1 [Compound 120]	C (C represents 1000-9999 nM)	> 10
0.1 to 1	> 10	1 to 10	Cc1cn2cc(NC(=O)c3ccc(N4CCNC5(CC5)C4)c4cccnc34)cc(F)c2n1 [Compound 341]	B (B represents 100-1000 nM)	1 to 10
0.1 to 1	> 10	> 10	Cc1cn2cc(NC(=O)c3ccc(N4C[C@@H](C)N[C@@H](C)C4)c4nccnc34)nc2c(C)n1 [Compound 359]	B (B represents 100-1000 nM)	> 10
> 10	> 10	> 10	Cc1cn2cc(NC(=O)c3ccc(N4C[C@@H](C)N[C@@H](C)C4)c4ncccc34)cc(F)c2n1 [Compound 358]	D (D represents greater than 10 μM in K562 cells)	> 10
1 to 10	> 10	> 10	COc1cn2cc(NC(=O)c3ccc(N4C[C@@H](C)N[C@@H](C)C4)c4nccnc34)cc(F)c2n1 [Compound 357]	C (C represents 1000-9999 nM)	> 10
0.1 to 1	0.1 to 1	0.1 to 1	Cc1cn2cc(NC(=O)c3ccc(N4CCN5CCOC[C@@H]5C4)c4nccnc34)cc(F)c2n1 [Compound 255, (S)—N-(8-fluoro-2-methylimidazo[1,2-a]pyridin-6-yl)-8-(hexahydropyrazino[2,1-c][1,4]oxazin-8(1H)-yl)quinoxaline-5-carboxamide]	B (B represents 100-1000 nM)	0.1 to 1
0.1 to 1	1 to 10	0.1 to 1	CCN1CCN(c2ccc(C(=O)Nc3cc(F)c4nc(C)cn4c3)c3nccnc23)CC12CC2 [Compound 365]	B (B represents 100-1000 nM)	1 to 10
0.1 to 1	1 to 10	1 to 10	Cc1cn2cc(NC(=O)c3ccc(N4CCNCC4)c4nncnc34)cc(F)c2n1 [Compound 345]	B (B represents 100-1000 nM)	1 to 10
0.1 to 1	> 10	> 10	Cc1cn2cc(NC(=O)c3ccc(N4CC[C@@H](N(C)C)C4)c4nccnc34)cc(F)c2n1 [Compound 242, 8-[(3R)-3-(dimethylamino)pyrrolidin-1-yl]-N-{8-fluoro-2-methylimidazo[1,2-a]pyridin-6-yl}quinoxaline-5-carboxamide]	B (B represents 100-1000 nM)	> 10
0.1 to 1	0.1 to 1	0.1 to 1	COc1cc2c(N3C[C@@H](C)N[C@@H](C)C3)ccc(C(=O)Nc3cc(F)c4nc(C)cn4c3)c2nn1 [Compound 273, 5-[(3R,5S)-3,5-dimethylpiperazin-1-yl]-N-{8-fluoro-2-methylimidazo[1,2-a]pyridin-6-yl}-3-methoxycinnoline-8-carboxamide]	B (B represents 100-1000 nM)	0.1 to 1
1 to 10	1 to 10	1 to 10	Cc1cn2cc(NC(=O)c3ccc(N4CC(C)NC(C)C4)c4nc(C)c(C)nc34)cc(F)c2n1 (stereo not drawn) [Compound 257]	B (B represents 100-1000 nM)	1 to 10
< 0.1	0.1 to 1	0.1 to 1	Cc1cn2cc(NC(=O)c3ccc(N4CCC(NC5CC5)CC4)c4nccnc34)cc(F)c2n1 [Compound 258, 8-(4-(cyclopropylamino)piperidin-1-yl)-N-(8-fluoro-2-methylimidazo[1,2-a]pyridin-6-yl)quinoxaline-5-carboxamide]	B (B represents 100-1000 nM)	0.1 to 1
0.1 to 1	1 to 10	1 to 10	COc1nc(NC(=O)c2ccc(N3C[C@@H](C)N[C@@H](C)C3)c3nccnc23)cc2cn(C)nc12 [Compound 352]	B (B represents 100-1000 nM)	1 to 10
1 to 10	1 to 10	> 10	COc1nc2ccc(NC(=O)c3ccc(N4C[C@@H](C)N[C@@H](C)C4)c4nccnc34)cc2o1 [Compound 292]	D (D represents greater than 10 μM in K562 cells)	> 10
< 0.1	0.1 to 1	0.1 to 1	COc1cnc2c(N3CC[C@@H](N(C)C)C3)ccc(C(=O)Nc3cc(F)c4nc(C)cn4c3)c2n1 [Compound 244, 8-[(3R)-3-(dimethylamino)pyrrolidin-1-yl]-N-{8-fluoro-2-methylimidazo[1,2-a]pyridin-6-yl}-3-methoxyquinoxaline-5-carboxamide]	A (A represents <100 nM)	0.1 to 1
> 10	> 10	> 10	C[C@@H]1CN(c2ccc(C(=O)Nc3ccc4nc(N(C)C)oc4c3)c3nccnc23)C[C@H](C)N1 [Compound 290]	D (D represents greater than 10 μM in K562 cells)	> 10
0.1 to 1	> 10	1 to 10	Cc1cn2cc(NC(=O)c3ccc(N4C[C@@H](C)N[C@@H](C)C4)c4cccnc34)cc(F)c2n1 [Compound 340]	B (B represents 100-1000 nM)	1 to 10
< 0.1	0.1 to 1	1 to 10	Cc1cn2cc(NC(=O)c3ccc(N4C[C@@H](C)N[C@@H](C5CC5)C4)c4nccnc34)cc(F)c2n1 [Compound 266, 8-((3S,5R)-3-cyclopropyl-5-methylpiperazin-1-yl)-N-(8-fluoro-2-methylimidazo[1,2-a]pyridin-6-yl)quinoxaline-5-carboxamide]	B (B represents 100-1000 nM)	0.1 to 1
